Results as given in US20100179185A1, “Novel Aminothienopyridinone Derivatives Processes for Preparing Them and Pharmaceutical Compositions Thereof” (UCB PHARMA, S.A., priority 2006, published 2010).

Columns and labels:
[1] = system: LPS stimulated release of TNF from Human whole blood; test: LPS stimulation of whole blood, TNF-α release (ELISA); type: cell-based; conditions: LPS 1 μg/ml, 18 hours, 37° C., n=12
Description: Inhibitor stocks (10 mM) are kept as a frozen solution (−20° C.) in DMSO. Serial dilutions of inhibitors are prepared in DMSO as 200-times concentrated stocks. Inhibitors are diluted 1 in 200 into tissue culture media, prewarmed to 37° C. and transferred to plates containing PBMC. PBMC and inhibitors are incubated together for 30 mins prior to addition of LPS. Inhibitors used in whole blood assays are prepared according to a different regime. Using the same stock solution, serial dilutions of inhibitors are prepared in DMSO. Inhibitors (14) are then diluted 1 in 500 straight into whole blood. Inhibitor is incubated with whole blood for 30 mins prior to the addition of LPS.
Whole blood is taken by venous puncture using heparinised vacutainers (Becton Dickinson), and 500 μl of blood aliquoted into each well of a 96 deep well plate. After the addition of inhibitor, blood is stimulated with an optimal dose of LPS (E coli strain B5:055, Sigma, at a final concentration of 1 μg ml^−1) and incubated at 37° C. without CO2 for 18 hours. TNF-α levels are measured from cell free supernatants by sandwich ELISA (R&D Systems, # DY210).

[2] = system: LPS stimulated TNF release in rat; test: Rat LPS induced TNF release; type: in vivo; conditions: 1.5 h, male Lewis rats, LPS 1 mg/kg i.v., plasma TNFα at 90 minutes, compound dosed p.o.
Description: Male Lewis rats (180-200 g) are anaesthetized with Isofluor and injected i.v. with LPS (1 mg/kg) in a volume of 0.5 ml sterile saline. After 90 minutes blood is collected into heparin tubes for preparation of plasma samples. Plasma is stored at −80° C. prior to assay for TNFα by commercial ELISA.

IC50 [1]: 30 to 200 nM
Compound: Cc1cccc(Nc2c(C(=O)N3CCC[C@@H]3CO)sc3c2ccc(=O)n3-c2c(F)cccc2F)n1 [Compound 1]
ED50 [2]: < 10 mg/kg
